One test addresses T1, gastrin receptor (Cavia porcellus, UniProt H0VZC5).
T1 construct: The fundic mucosa is gently scraped off the submucosa; from tissue; host or cells: guinea pig (Hartley) fundic mucosa gastric glands, collagenase-dispersed
T1 sequence (H0VZC5 1-426): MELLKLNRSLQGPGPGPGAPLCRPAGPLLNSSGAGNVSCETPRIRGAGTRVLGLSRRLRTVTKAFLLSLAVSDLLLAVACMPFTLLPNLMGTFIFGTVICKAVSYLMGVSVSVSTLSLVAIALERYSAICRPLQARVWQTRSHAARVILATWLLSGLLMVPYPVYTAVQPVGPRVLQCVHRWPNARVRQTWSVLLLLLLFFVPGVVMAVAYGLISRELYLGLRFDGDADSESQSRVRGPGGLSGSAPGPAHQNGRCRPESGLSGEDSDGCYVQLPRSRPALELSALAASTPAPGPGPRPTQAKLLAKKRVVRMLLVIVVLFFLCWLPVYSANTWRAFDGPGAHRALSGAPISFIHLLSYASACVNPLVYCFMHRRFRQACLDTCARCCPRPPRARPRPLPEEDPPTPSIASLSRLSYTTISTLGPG
Put plainly: Gastrin Receptor Binding Assay. The following applies: guinea pig gastric glands, displacement of 125I-(Leu-15)-Gastrin, 25° C., 30 minutes; read-out: IC50 Gastrin (In Vitro Binding Data). From the text: (§1) The effectiveness of the compounds of this invention as gastrin or cholecystokinin antagonists may be determined by the following pharmacologic tests which evaluate the gastrin and cholecystokinin antagonist activity of said compounds. The CCK-A Receptor Binding Assay and the Gastrin Receptor Binding Assay are standard test procedures. The CCK-A Receptor Binding Assay is essentially that of Chang, et al., "Characterization of the Binding of [^3 H]-(±)-L-364,718: A New Potent, Nonpeptide Cholecystokinin Antagonist Radioligand Selective for Peripheral Receptors", Molecular Pharmacology, 30: 212-217 (1986). The Gastrin Receptor Binding Assay is essentially that of Chang, et al., "Characterization of [^3 H]Pentagastrin Binding in Guinea Pig Gastric Glands - An Alternative Convenient Ligand for Receptor Binding Assay", Biochemical and Biophysical Research Communications, 134 (2): 895-899 (1986).
Gastrin Receptor Binding Assay
Phosphate Buffered Saline (PBS): 8.743 g NaCl, 523 mg K2 HPO4 and 76.8 mg NaH2 PO4 is dissolved in 900 ml of deionized water, the pH of the solution is adjusted to 7.3 with 5N NaOH, then Q.S. to 1 L.
Buffer A: Powdered Basal Medium Eagle (BME) containing Earle's Salts, L-glutamine and 25 mM HEPES without bicarbonate (Sigma Cat. number B 4391) sufficient to make 3 liters is stirred into 2.7 L of deionized water, […] sodium bicarbonate is added and the mixture stirred to give dissolution. The solution is then equilibrated with 95% O2 /5% CO2 gas followed by titration to a pH of 7.4 with NaOH, then Q.S. to 3 L.
Buffer B: 18.75 mg of collagenase A and 25 mg of pH neutralized BSA is dissolved in 25 ml of Buffer A.
Buffer C: 0.3 g of BSA is dissolved in 300 ml of Buffer A.
Buffer D: 6.25 mg Bacitracin is dissolved in 25 ml of Buffer A.
A guinea pig (Hartley Strain) weighing 150-200 grams, is sacrificed by CO2 asphyxiation and the stomach immediately excised, cut along the greater curvature, cleaned out and immediately immersed in a beaker containing cold PBS, pH 7.3, to insure thorough cleaning. The fundic mucosa is gently scraped off the submucosa and added to a preweighed 50 ml plastic centrifuge tube containing 30 ml of cold Buffer A. The weight of the plastic centrifuge tube containing the buffer is then subtracted from the combined weight of the mucosa and the buffer-containing tube to give the weight of the mucosa. The weight of the mucosa thus determined is recorded for later calculations. The mucosa is then washed twice in Buffer A. After the final wash, the tissue is minced and is placed in a 100-ml glass beaker containing about 1.0 ml of Buffer A, and washed twice again by repeated centrifugation at 50Xg for 5 minutes each and aspiration of supernatant. The washed tissue fragments are then added to a glass Erlenmeyer flask containing 25 ml of Buffer B and incubated in a Dubnoff shaking water bath at 37° C. for 30 minutes in a 95% O2 /5% CO2 atmosphere. After the incubation, the digested tissue fragments in the Collegenase-buffer solution are triturated, filtered through a 200-micron nylon mesh and centrifuged at 50Xg for 5 minutes. The supernatant is aspirated and discarded, the tissue washed 2X in Buffer C, resuspended in same buffer, incubated in a 37° C water bath in an atmosphere of 95% O2 /5% CO2 for 5 minutes, and centrifuged. The pelleted glands are suspended in Buffer D at a desired concentration of 2×10^5 glands/ml to use in the receptor binding assay.
Assay Buffer: Buffer A as above
^125 l-(Leu-15)-Gastrin: 100 microcurie dissolved in 2.0 ml of Buffer A to make 50 microcurie/ml; stored in 50 μl aliquots under Argon at -70° C.
^125 I-(15-methionine)-Human Gastrin: 50 microcurie/ml in deionized water, stored in 50 μl aliquots as above.
(Leu 15)-Gastrin 17:5.2 mg of (Leu-15)- Gastrin is dissolved in 10 ml of Buffer A and stored in 30 μl aliquots. At the time of assay a 1:10 dilution is made and 10 μl/assay tube is used. […]

Another test has as its target T2, CCK-A receptor (Rattus norvegicus, UniProt P30551).
T2 construct: from tissue; host or cells: rat (Sprague-Dawley) pancreas membrane homogenate
T2 sequence (P30551 1-444): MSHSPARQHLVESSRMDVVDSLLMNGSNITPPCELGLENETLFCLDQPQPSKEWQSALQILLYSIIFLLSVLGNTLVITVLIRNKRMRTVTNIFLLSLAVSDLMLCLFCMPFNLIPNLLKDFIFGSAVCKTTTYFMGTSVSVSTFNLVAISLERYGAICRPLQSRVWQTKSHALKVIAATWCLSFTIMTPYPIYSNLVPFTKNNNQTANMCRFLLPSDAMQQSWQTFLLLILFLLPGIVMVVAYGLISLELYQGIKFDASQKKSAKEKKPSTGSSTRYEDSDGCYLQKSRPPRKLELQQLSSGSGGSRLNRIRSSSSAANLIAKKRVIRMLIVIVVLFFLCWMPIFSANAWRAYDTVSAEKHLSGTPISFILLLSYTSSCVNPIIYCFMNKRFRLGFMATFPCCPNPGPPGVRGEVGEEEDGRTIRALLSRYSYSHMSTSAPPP
Put plainly: CCK-A Receptor Binding Assay. The settings on record: rat pancreas membranes, displacement of 3H-L-364,718 (0.2 nM), 37° C., 30 minutes; read-out: IC50 CCK-A (In Vitro Binding Data).
Excerpt: as §1
CCK-A Receptor Binding Assay
Wash Buffer (for use with Brandel Cell Harvester):
30 liters (L) of 50 mM Tris, pH 7.7: Dissolve 1 81.7 g Tris base in 4 L deionized water at room temperature. Adjust pH to 7.7 with 6N HCl and Q.S. to 30 L.
50 mM Tris-Cl, 5 mM MgCl2, 5 mM dithiothreitol, 0.14 mg/ml bacitracin, and 2 mg/ml bovine serum albumin (BSA).
1 liter of 5X stock buffer:
30.28 g Tris base per 800 ml deionized water, 5.08 g MgCl2 ·6H20, pH to 7.7 at room temperature with 6N HCl and Q.S. to 1 liter, store at 4° C.
250 ml working buffer (kept on ice):
50 ml of 5X stock buffer 0.1928 g dithiothreitol (5 mM), 35 mg bacitracin (0.14 mg/ml), and 0.5 g BSA (2mg/ml).
Unlabeled L-364,718 (nonpeptide ligand):
Unlabeled L-364,718 (N-(2,3-dihydro-1-methyl-2-oxo-5-phenyl-1H-1,4-benzodiazepin-3-yl)-1H-indole-2-carboxamide) (300 nM final concentration) is used to define nonspecific binding. A […] solution is made in absolute ethanol and stored at -70° C. Aliquots are diluted 100-fold in the assay.
A Sprague-Dawley rat is sacrificed by asphyxiation with carbon dioxide and the pancreas removed. The tissue is immersed in cold wash buffer and carefully trimmed of fat, connective tissue, blood vessels, blotted and weighed. The tissue is homogenized in a Sorvall SS-34 centrifuge tube in 50 volumes of wash buffer using a Polytron at setting 7 for 15 seconds. The tissue is centrifuged (Sorvall SS-34) at 19,000 rpm for 10 min. The supernatant is poured off and the pellet resuspended in sufficient buffer to obtain a concentration of 40 mg tissue wet weight/mi. Separate aliquots (2.3ml) are placed in each of 8 centrifuge tubes and centrifuged as before. The supernatants are poured off and the pellets stored at -70° C. Stored pellets are sufficient for the assay of 160 tubes and are stable for 1-2 months.
During the assay the stored membranes are resuspended in 40 ml of assay buffer by scraping the pellet off the wall of the centrifuge tube and washing it into a teflon-glass homogenizer. Membranes are resuspended by 5 passes with the teflon pestle and the membranes stored on ice until ready for use.
Preparation of Compounds:
Compounds of the present invention to be tested are prepared in DMSO (dimethyl sulfoxide) or in assay buffer. The majority of compounds of the present invention active as CCK antagonists generally require DMSO for complete solubility. Approximately 2-3 mg of compound is weighed directly into a 13×100 mm test tube and sufficient DMSO added to obtain a working stock solution at a concentration 100 fold greater than the highest concentration being tested in the assay. A total of 10 μl of each concentration of drug is added into a final volume of 1 ml to yield a 100 fold dilution of the working stock solution. Control binding tubes ("totals and nonspecifics") are also treated with 10 μl DMSO.
^3 H-L-364,718 is obtained from New England Nuclear (Cat. #971) and is used as supplied. […]

The structures appear in SMILES notation. *1 amine or outer side, *2 acyl side, *3 side chain or, on linkers, in order; H or OH if unused. Where a SMILES comes first, the peptide text is derived from it. [ ]: non-standard residue; d: D form. The star is where a group is joined. Hyp = O=C(O)[C@@H]1C[C@@H](O)CN1; βNA = c1ccc2cc(N*)ccc2c1; 2Abz = Nc1ccccc1C(=O)O; CO = O=C([*:1])[*:2]; Bn = c1ccc(C*)cc1

The term IC50 denotes the concentration that gives 50% inhibition. In the case of `Cc1cccc(NC(=O)N2c3ccccc3C[C@H]2C(=O)N2CCc3c([nH]c4ccccc34)C2)c1` [Example 3, 2-[(N-(3-methyl)phenylcarbamoylindolin-2(S)-yl)carbonyl]-1,2,3,4-tetrahydro-9H-pyrido[3,4-b]indole], the figures for the IC50 on gastrin receptor and on CCK-A receptor were greater than 300 µM and 30 µM, respectively. With `Cc1cccc(NC(=O)N2C[C@H](OCc3ccccc3)C[C@H]2C(=O)N2CCc3c([nH]c4ccccc34)C2)c1` [Example 1, 2-[(N-(3-methyl)phenylcarbamoyl-4(R)-benzyloxy)-L-prolyl]-1,2,3,4-tetrahydro-9H-pyrido[3,4-b]indole], the IC50 was greater than 300 µM on gastrin receptor and 9 µM at CCK-A receptor. `O=C(O)c1ccccc1NC(=O)[C@@H]1CCCN1C(=O)[C@@H]1C[C@@H](OCc2ccccc2)CN1C(=O)Nc1ccc2ccccc2c1` [Example 9, 2-[(N-(4(R)-benzyloxy-N-naphth-2-ylcarbamoyl-L-prolyl)-L-prolyl)amino]benzoic acid] ({βNA-CO}-[Hyp](Bn)-Pro-[2Abz]-OH): at gastrin receptor, the 50% inhibitory concentration (IC50) came out at 0.13 µM.

`Cc1cccc(NC(=O)N2CCC[C@H]2C(=O)N2CCc3c([nH]c4ccccc34)C2)c1` [Example 6, 2-[N-(3-methyl)phenylcarbamoyl-L-prolyl]-1,2,3,4-tetrahydro-9H-pyrido[3,4-b]indole]: the IC50 was greater than 30 µM at gastrin receptor and 37 µM at CCK-A receptor. The matching figures for `COc1ccc(NC(=O)N2C[C@H](OCc3ccccc3)C[C@H]2C(=O)N2CCc3c([nH]c4ccccc34)C2)cc1` [Example 2, 2-[(N-(4-methoxy)phenylcarbamoyl-4(R)-benzyloxy)-L-prolyl]-1,2,3,4-tetrahydro-9H-pyrido[3,4-b]indole]: 120 µM and 15 µM. Regarding `O=C(O)c1ccccc1NC(=O)[C@@H]1CCCN1C(=O)[C@@H]1C[C@@H](OCc2ccccc2)CN1C(=O)Nc1cccc2ccccc12` [Example 11, 2-[(N-(4(R)benzyloxy-N-naphth-1-ylcarbamoyl-L-prolyl)-L-prolyl)amino]benzoic acid], the 50% inhibitory concentration (IC50) at gastrin receptor was determined as 0.2 µM. Turning to `O=C([C@H]1CCCN1C(=O)Nc1ccc2ccccc2c1)N1CCc2c([nH]c3ccccc23)C1` [Example 4, 2-(N-naphth-2-ylcarbamoyl-D-prolyl)-1,2,3,4-tetrahydro-9H-pyrido[3,4-b]indole], the IC50 on gastrin receptor was determined as 10.3 µM; on CCK-A receptor, 7.3 µM. On to `Cc1cccc(NC(=O)N2CCC[C@@H]2C(=O)N2CCc3c([nH]c4ccccc34)C2)c1` [Example 5, 2-[N-(3-methyl)phenylcarbamoyl-D-prolyl]-1,2,3,4-tetrahydro-9H-pyrido[3,4-b]indole], for which the IC50 on gastrin receptor is greater than 30 µM; at CCK-A receptor, 37 µM. Regarding `Cc1cccc(NC(=O)N2C[C@H](OCc3ccccc3)C[C@H]2C(=O)N[C@H](CC(C)C)C(=O)N[C@H](CC(=O)O)C(N)=O)c1` [Example 7], the half-inhibitory concentration (IC50) worked out at 2.6 µM at gastrin receptor and 3 µM at CCK-A receptor.

Source of the values: US5340801A, “Compounds having cholecystokinin and gastrin antagonistic properties” (Rhone-Poulenc Rorer Pharmaceuticals Inc., priority 1991, dated 1994).
